In patent US20070249710A1, “Biaromatic compounds and cosmetic/pharmaceutical applications thereof” (GALDERMA RESEARCH & DEVELOPMENT, priority 2004, published 2007):
Blank lines part the entries; values can stand above or below the compound they belong to.

Experiments:
[1] = molecular target: T1, RARalpha (Homo sapiens, UniProt P10276); experiment: Transactivation test, HeLa reporter cells (RARalpha); assay type: cell-based
T1 sequence (P10276 183-417 limits assumed): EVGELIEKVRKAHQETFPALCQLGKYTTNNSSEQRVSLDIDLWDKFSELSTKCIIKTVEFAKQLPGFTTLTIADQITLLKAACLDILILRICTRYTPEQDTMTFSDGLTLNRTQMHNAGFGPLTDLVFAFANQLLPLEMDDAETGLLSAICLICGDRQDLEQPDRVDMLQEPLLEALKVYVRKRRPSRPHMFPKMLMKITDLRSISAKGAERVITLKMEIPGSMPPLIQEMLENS
Method: (§1) The activation of the receptors by an agonist (activator) in HeLa cells results in the expression of a reporter gene, luciferase, which, in the presence of a substrate, generates light. It is therefore possible to measure the activation of the receptors by quantifying the luminescence produced after incubation of the cells in the presence of a reference antagonist. The activator products displace the antagonist from its site, thus allowing activation of the receptor. The measurement of the activity is carried out by quantifying the increase in the light produced. This measurement makes it possible to determine the activating activity of the compound for use in the invention.
(§2) In this study, a constant which is the affinity of the molecule for the receptor is determined. Since this value can fluctuate depending on the basal activity and the expression of the receptor, it is designated apparent Kd (KdApp). […]
(§3) These cross curves make it possible to determine the AC50 values (concentration at which 50% activation is observed) for the reference ligand at various concentrations of product to be tested. These AC50 values are used to calculate the Schild regression by plotting a straight line corresponding to the Schild equation (“quantitation in receptor pharmacology”, Terry P. Kenakin, Receptors and Channels, 2001, 7, 371-385).
(§4) In the case of an agonist, the AC50 value (concentration that gives 50% of the activity) is calculated by plotting the curve of the product at the concentration of the reference ligand that gives 80% activation. The percentage activation which corresponds to the maximum level of activity obtained is also measured. […]
(§5) The culture medium is removed by turning the plates upside down and 100 μl of a 1:1 PBS (phosphate buffer solution)/luciferin mixture are added to each well. After 5 minutes, the plates are read with a luminescence reader.

[2] = molecular target: T2, RARbeta (Homo sapiens, UniProt P10826); experiment: Transactivation test, HeLa reporter cells (RARbeta); assay type: cell-based
T2 sequence (P10826 183-417 limits assumed): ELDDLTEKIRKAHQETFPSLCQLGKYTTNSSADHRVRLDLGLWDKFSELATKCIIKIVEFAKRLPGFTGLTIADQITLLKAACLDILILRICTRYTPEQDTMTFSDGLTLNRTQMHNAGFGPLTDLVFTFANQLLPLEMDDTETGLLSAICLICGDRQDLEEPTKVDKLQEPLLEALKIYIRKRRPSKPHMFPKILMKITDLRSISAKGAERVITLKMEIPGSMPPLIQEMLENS
Method: as §1, §2, §3, §4, §5

[3] = molecular target: T3, RARgamma (Homo sapiens, UniProt P13631); experiment: Transactivation test, HeLa reporter cells (RARgamma); assay type: cell-based; conditions: for specificity for RARgamma in comparison with RARalpha and RARbeta: transactivation test, in words
T3 sequence (P13631 185-419 limits assumed): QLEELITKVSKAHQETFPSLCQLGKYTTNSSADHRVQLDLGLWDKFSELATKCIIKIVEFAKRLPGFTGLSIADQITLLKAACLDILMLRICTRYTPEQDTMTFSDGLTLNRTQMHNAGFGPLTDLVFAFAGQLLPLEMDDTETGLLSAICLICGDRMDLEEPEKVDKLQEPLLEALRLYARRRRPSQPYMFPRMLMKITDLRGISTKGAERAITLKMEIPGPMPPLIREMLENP
Method: as §1
In this study, a constant which is the affinity of the molecule for the receptor is determined. Since this value can fluctuate depending on the basal activity and the expression of the receptor, it is designated apparent Kd (KdApp).
To determine this constant, “cross curves” for the product to be tested (2-hydroxy-4-[2-hydroxyimino-2-(5,5,8,8-tetramethyl-5,6,7,8-tetrahydronaphthalen-2-yl)ethoxy]benzoic acid), against a reference antagonist, otherwise called reference ligand, 4-(5,5-dimethyl-8-p-tolyl-5,6-dihydronaphthalen-2-ylethynyl)benzoic acid, are produced. The product to be tested is used at 10 concentrations and the reference antagonist at 7 concentrations. In each well (of a 96-well plate), the cells are in contact with one concentration of the product to be tested and one concentration of the reference antagonist.
Measurements are also carried out for the total agonist control, otherwise called 100% control (4-[2-(5,5,8,8-tetramethyl-5,6,7,8-tetrahydronaphthalen-2-yl)propenyl]benzoic acid), and the inverse agonist control, otherwise called 0% control, 4-{(E)-3-[4-(4-tert-butylphenyl)-5,5,8,8-tetramethyl-5,6,7,8-tetrahydronaphthalen-2-yl]-3-oxopropenyl}benzoic acid.
as §3
In the case of an agonist, the AC50 value (concentration that gives 50% of the activity) is calculated by plotting the curve of the product at the concentration of the reference ligand that gives 80% activation. The percentage activation which corresponds to the maximum level of activity obtained is also measured.
The HeLa cell lines used are stable transfectants containing the plasmids ERE-βGlob-Luc-SV-Neo (reporter gene) and RAR (α, β, γ) ER-DBD-puro. These cells are seeded into 96-well plates at a rate of 10,000 cells per well in 100 μl of DMEM medium without phenol red, supplemented with 10% of delipidized calf serum. The plates are then incubated at 37° C., 7% CO2 for 4 hours. […]
as §5

[4] = concentration that gives 50% of the activity, HeLa luciferase reporter

Kd ([1]; apparent Kd, Schild regression against reference antagonist, HeLa luciferase reporter, read-out: RARalpha Kdapp): 4060 nM
RARalpha % activation ([1]; at 10 μM, maximum level of activity): 100%
AC50 [1, 4]: 1700 nM
Kd ([2]; apparent Kd, Schild regression against reference antagonist, HeLa luciferase reporter, read-out: RARbeta Kdapp): 1030 nM
RARbeta % Activation ([2]; at 5 μM, maximum level of activity): 100%
AC50 [2, 4]: 600 nM
Kd ([3]; apparent Kd, Schild regression against reference antagonist, HeLa luciferase reporter, read-out: RARgamma Kdapp): 8 nM
RARgamma % activation ([3]; at 0.04 μM, maximum level of activity): 100%
AC50 [3, 4]: 9 nM
Structure (SMILES): CC1(C)CCC(C)(C)c2cc(C(COc3ccc(C(=O)O)c(O)c3)=NO)ccc21 [Acid compound of the invention, 2-hydroxy-4-[2-hydroxyimino-2-(5,5,8,8-tetramethyl-5,6,7,8-tetrahydronaphthalen-2-yl)ethoxy]benzoic acid]
specificity for RARgamma in comparison with RARalpha and RARbeta ([3]; listed as 2-Hydroxy-4-[2-hydroxyimino-2-(5,5,8,8-tetramethyl-5,6,7,8-tetrahydronaphthalen-): selective agonist or activator of the RARgamma receptor
specificity for RARgamma in comparison with RARalpha and RARbeta ([3]; listed as 2-hydroxy-4-[2-hydroxyimino-2-(5,5,8,8-tetramethyl-5,6,7,8-tetrahydronaphthalen-): great specificity for the receptor subtype RARgamma

melting point: 130 °C
Structure (SMILES): CCOC(=O)c1ccc(OCC(=NO)c2ccc3c(c2)C(C)(C)CCC3(C)C)cc1O [Example 1, ethyl 2-hydroxy-4-[2-hydroxyimino-2-(5,5,8,8-tetramethyl-5,6,7,8-tetrahydronaphthalen-2-yl)ethoxy]benzoate]

melting point: 130 °C
Structure (SMILES): CC(C)OC(=O)c1ccc(OCC(=NO)c2ccc3c(c2)C(C)(C)CCC3(C)C)cc1O [Example 2, isopropyl 2-hydroxy-4-[2-hydroxyimino-2-(5,5,8,8-tetramethyl-5,6,7,8-tetrahydronaphthalen-2-yl)ethoxy]benzoate]

melting point: 96 °C
Structure (SMILES): CC(C)COC(=O)c1ccc(OCC(=NO)c2ccc3c(c2)C(C)(C)CCC3(C)C)cc1O [Example 3, isobutyl 2-hydroxy-4-[2-hydroxyimino-2-(5,5,8,8-tetramethyl-5,6,7,8-tetrahydronaphthalen-2-yl)ethoxy]benzoate]
